Each structure is given as a SMILES string. Like-named read-outs stand apart in the source and are kept apart here.

Data set [1] relates to mongrel dogs. Kind of data set: Electrophysiological (EKG) effects of ondansetron enantiomers and racemate in dogs, rising cumulative doses. The conditions noted are these: for Death or survival of dogs during or shortly after the experiment: four dogs per treatment, 0-4.0 mg/kg cumulative.
Experimental: (§1) An investigation was conducted to determine the effect of racemic ondansetron and the R(+)- and S(−)-enanatiomers of ondansetron in causing cardiac arrhythmias (cardiotoxicity) resulting from a lengthening of the cardiac action potential.
(§2) The order of administration was randomized to ensure that each dog received only one treatment.
Data set [2] deals with mongrel dogs. The conditions noted are these: dog, in vivo.
Experimental: as §1, §2

`Cc1nccn1CC1CCc2c(c3ccccc3n2C)C1=O` (racemic) [R,S-Ondansetron, ondansetron]: the “Prolongation of QTc interval, compared among treatments” value in data set [1] (dogs, comparison in words of the three treatments) was “most prolonged”. The “Death or survival of dogs during or shortly after the experiment” value in data set [1] was “survived”.
On to `Cc1nccn1C[C@H]1CCc2c(c3ccccc3n2C)C1=O` [R(+)-Ondansetron, R(+) ondansetron], for which the “Prolongation of QTc interval, compared among treatments” value in data set [2] is given as “shortest”. Also, the “Cardiotoxicity, compared among treatments” value in data set [1] (conclusion from QTc and mortality data in dogs) is recorded as “less cardiotoxicity than either S(−) ondansetron or racemic ondansetron”. Moreover, the “Death or survival of dogs during or shortly after the experiment” value in data set [1] is “survived”.
For `Cc1nccn1C[C@@H]1CCc2c(c3ccccc3n2C)C1=O` [S(−)-Ondansetron, S(−) ondansetron], the “Prolongation of QTc interval, compared among treatments” value in data set [2] is “most prolonged”. Further, in data set [2] (4 mg/kg), the “QTc Interval” value worked out at 0.44 ± 0.03 s.

The record behind these values is patent US6548082B1, “Methods for treating apnea and apnea disorders using optically pure R(+) ondansetron” (Sepracor Inc., priority 1999, dated 2003).
